Patent publication US11357779B2 (G1 Therapeutics, Inc., priority 2018, dated 2022)
Where two headings read alike, the source gives them in different places. Values belong to the molecule of their own block, whether it stands above or below them.

Tests used:
[1] = tested on: ME-016 tumor; test: Murine BRAFmut melanoma PDX model, tumor growth and survival; format: in vivo; conditions: ME-016 tumor-containing mice; Compound I 100 mg/kg, dabrafenib 25 mg/kg, trametinib 1 mg/kg
Experimental: Mice containing a ME-016 tumor were treated with vehicle, Compound I (100 mg/kg), dabrafenib (25 mg/kg), trametinib (1 mg/kg), Compound I+dabrafenib, Compound I+trametinib, dabrafenib+trametinib, and Compound I+dabrafenib+trametinib.

[2] = Grade 3/4 neutropenia and leukopenia; cited from earlier work
[3] = Steady-state AUC0-24,ss, (AUC0-24,ss)/dose, half-life and time to steady state: Compound I versus palbociclib, ribociclib, abemaciclib; format: in vivo, human; conditions: for Time to Steady State / Time to Steady-State: FDA labeled dose, five half-lives; for AUC(0-t): human, in vivo, read-out: Extrapolated AUC0-24,ss; for (AUC0-24,ss)/Dose (mg): in h·ng/mL/mg
Excerpt: The time to reach steady state was defined as five half-lives (97% steady state achieved). […] The AUC data are presented as the arithmetic mean. […] The AUC data are presented as the geometric mean. The steady-state AUC0-24 for various BID doses of abemaciclib provided in Table 89 was obtained from the above cited prior published studies. The AUC data are presented as the geometric mean.

[4] = cited from earlier work; for AUC0-10,ss: arithmetic mean; for AUC0-24,ss: geometric mean
[5] = abemaciclib, cited from earlier work
[6] = cited from earlier work
[7] = trial not given; cited from earlier work
[8] = MONALEESA-2; cited from earlier work

Compound: CC(C)(C)c1nc(-c2cccc(NS(=O)(=O)c3c(F)cccc3F)c2F)c(-c2ccnc(N)n2)s1 [Dabrefinib]
Median OS [1]: 32 days

Compound: CC(=O)Nc1cccc(-n2c(=O)n(C3CC3)c(=O)c3c(Nc4ccc(I)cc4F)n(C)c(=O)c(C)c32)c1 [Trametinib]
Median OS [1]: 42.5 days

Compound: CCN1CCN(Cc2ccc(Nc3ncc(F)c(-c4cc(F)c5nc(C)n(C(C)C)c5c4)n3)nc2)CC1 [abemaciclib, 2-pyrimidinamine, N-[5-[(4-ethyl-1-piperazinyl)methyl]-2-pyridinyl]-5-fluoro-4-[4-fluoro-2-methyl-1-(1-methylethyl)-1H-benzimidazol-6-yl]-]
estimated geometric mean accumulation ratio ([5]; based on AUC): 3.2 (59% CV)
estimated geometric mean accumulation ratio ([5]; based on Cmax): 2.3 (50% CV)
T1/2 ([5]; human): roughly 18.3 hours
(AUC0-24,ss)/Dose (mg) ([3]; 75 mg BID): 17.33
(AUC0-24,ss)/Dose (mg) ([3]; 100 mg BID): 39.10
(AUC0-24,ss)/Dose (mg) ([3]; 150 mg BID): 28.53
(AUC0-24,ss)/Dose (mg) ([3]; 200 mg BID): 27.60
Diarrhea, patients ([6]; MONARCH 1, abemaciclib alone): 90%
Grade 3 diarrhea, patients ([6]; MONARCH 1, abemaciclib alone): 20%
Neutropenia, patients ([6]; MONARCH 1, abemaciclib alone): 37%
Grade >3 decrease in neutrophil count (based on laboratory findings), patients ([6]; MONARCH 1): 27%
AUC0-24,ss ([4]; 75 mg BID): 1300 ng·h/mL
AUC0-24,ss ([4]; 100 mg BID): 3910 ng·h/mL
AUC0-24,ss ([4]; 150 mg BID): 4280 ng·h/mL
AUC0-24,ss ([4]; 200 mg BID): 5520 ng·h/mL
patients with diarrhea required a dose reduction [7]: 22%
patients with diarrhea required dose omission [7]: 22%

Continued, in another order:

Extrapolated AUC0-24,ss ([3]; 100 mg QD, AUC0-24=(AUC0-10)*2.49655): 1478 ng·h/mL
Time to Steady State ([3]; 125 mg QD): 5.5 days
Time to Steady-State ([3]; 125 mg QD): 132.5 h
AUC(0-t) ([3]; 25 mg QD, AUC0-24=(AUC0-10)*2.49655): 297 ng·h/mL
AUC(0-t) ([3]; 50 mg QD, AUC0-24=(AUC0-10)*2.49655): 684 ng·h/mL
AUC(0-t) ([3]; 75 mg QD, AUC0-24=(AUC0-10)*2.49655): 1230 ng·h/mL
AUC(0-t) ([3]; 125 mg QD, AUC0-24=(AUC0-10)*2.49655): 1810 ng·h/mL
AUC(0-t) ([3]; 150 mg QD, AUC0-24=(AUC0-10)*2.49655): 2710 ng·h/mL
Compound: CC(=O)c1c(C)c2cnc(Nc3ccc(N4CCNCC4)cn3)nc2n(C2CCCC2)c1=O [palbociclib, 6-acetyl-8-cyclopentyl-5-methyl-2-(5-piperazin-1-yl-pyridin-2-ylammino)-8H-pyrido-[2,3-d]-pyrimidin-7-one]
patients requiring a dose interruption [2]: 71%
patients requiring a dose reduction [2]: 35%
AUC0-10,ss ([4]; 25 mg QD): 119 ng·h/mL
AUC0-10,ss ([4]; 50 mg QD): 274 ng·h/mL
AUC0-10,ss ([4]; 75 mg QD): 492 ng·h/mL
AUC0-10,ss ([4]; 100 mg QD): 592 ng·h/mL
Mean Half-Life ([4]; 125 mg QD, FDA labeled dose): 26.5 h
AUC0-10,ss ([4]; 125 mg QD): 724 ng·h/mL
AUC0-10,ss ([4]; 150 mg QD): 1084 ng·h/mL

Time to Steady State ([3]; 600 mg QD): 6.8 days
Time to Steady-State ([3]; 600 mg QD): 162.5 h
Compound: CN(C)C(=O)c1cc2cnc(Nc3ccc(N4CCNCC4)cn3)nc2n1C1CCCC1 [ribociclib, 7-cyclopentyl-N,N-dimethyl-2-((5-(piperazin-1-yl)pyridin-2-yl)amino)-7H-pyrrolo[2,3-d]pyrimidine-6-carboxamide]
neutropenia, most frequently reported adverse reaction [8]: 75%
